The experiment concerns MCF7. As to the kind of experiment: Cytotoxicity against human MCF7 cells after 15 days by clonogenic assay. Type of experiment: functional, cell-based.

On to `C=C1/C=C/[C@H](OC)[C@@H](C)CC(=O)c2c(C)coc2C1` (relative stereo), for which, under “mcf7”, the IC50 entry is on record as “Not Active”. As for `C=C1Cc2occ(C)c2C(=O)C[C@H](C)C[C@@H]2O[C@@H]12` (relative stereo), for the setting “Homo sapiens, MCF7, 360 h, read-out: IC50”, the IC50 stood at 40 µM. In the case of `CO[C@H]1/C=C(\C)Cc2occ(C)c2C(=O)C[C@H](C)C1` (relative stereo), the IC50 entry (mcf7) is recorded as “Not Active”. Same read-out and setting: the value for `CO[C@H]1/C=C(/C)Cc2occ(C)c2C(=O)[C@@H](OC(C)=O)[C@H](C)C1` (relative stereo) was “Not Active”.

Broadly, the IC50 is the concentration that gives 50% inhibition.

For the origin of these results see ChEMBL document CHEMBL1156379, “Furanosesquiterpenoids of Commiphora myrrha” (J Nat Prod, 2001).
